Values of other authors as cited in patent publication US9020605B2, “Electroporation device” (OncoSec Medical Incorporated, priority 2012, dated 2015).

Conditions: P being the partition coefficient between octanol and water

bleomycin
log P: very negative
